PMC2442905 (British Journal of Pharmacology, 2008)
pIC50: −log10 of the molar value. Like-named read-outs stand apart in the source and are kept apart here. Each block holds one compound with its values, some of them ahead of it.

Key:
[1] = Drug concentrations in plasma of guinea-pigs; assay type: in vivo; settings: anaesthetized guinea-pig
plasma proteins = settings: human; cited from earlier work
[2] = system: anaesthetized guinea-pigs (QTc interval of the ECG); experiment: Anaesthetized guinea-pig QT; assay type: in vivo; settings: for QTc increase of 5% over vehicle (risk signal): low, medium and high doses; for increase (change) of baseline-corrected QTc over vehicle / mean baseline-corrected QTc: highest dose level; for increase (change) of baseline-corrected QTc over vehicle / mean baseline-corrected QTc / effect on QT/QTc interval in the guinea-pig model (in words): i.v. infusion over 10 min
[3] = biological target: T1, hERG potassium channels stably expressed in CHO-K1 cells (Homo sapiens, UniProt Q12809); experiment: cell-based; settings: 25 °C, 400-ms pulse protocol
T1 sequence (Q12809 whole entry): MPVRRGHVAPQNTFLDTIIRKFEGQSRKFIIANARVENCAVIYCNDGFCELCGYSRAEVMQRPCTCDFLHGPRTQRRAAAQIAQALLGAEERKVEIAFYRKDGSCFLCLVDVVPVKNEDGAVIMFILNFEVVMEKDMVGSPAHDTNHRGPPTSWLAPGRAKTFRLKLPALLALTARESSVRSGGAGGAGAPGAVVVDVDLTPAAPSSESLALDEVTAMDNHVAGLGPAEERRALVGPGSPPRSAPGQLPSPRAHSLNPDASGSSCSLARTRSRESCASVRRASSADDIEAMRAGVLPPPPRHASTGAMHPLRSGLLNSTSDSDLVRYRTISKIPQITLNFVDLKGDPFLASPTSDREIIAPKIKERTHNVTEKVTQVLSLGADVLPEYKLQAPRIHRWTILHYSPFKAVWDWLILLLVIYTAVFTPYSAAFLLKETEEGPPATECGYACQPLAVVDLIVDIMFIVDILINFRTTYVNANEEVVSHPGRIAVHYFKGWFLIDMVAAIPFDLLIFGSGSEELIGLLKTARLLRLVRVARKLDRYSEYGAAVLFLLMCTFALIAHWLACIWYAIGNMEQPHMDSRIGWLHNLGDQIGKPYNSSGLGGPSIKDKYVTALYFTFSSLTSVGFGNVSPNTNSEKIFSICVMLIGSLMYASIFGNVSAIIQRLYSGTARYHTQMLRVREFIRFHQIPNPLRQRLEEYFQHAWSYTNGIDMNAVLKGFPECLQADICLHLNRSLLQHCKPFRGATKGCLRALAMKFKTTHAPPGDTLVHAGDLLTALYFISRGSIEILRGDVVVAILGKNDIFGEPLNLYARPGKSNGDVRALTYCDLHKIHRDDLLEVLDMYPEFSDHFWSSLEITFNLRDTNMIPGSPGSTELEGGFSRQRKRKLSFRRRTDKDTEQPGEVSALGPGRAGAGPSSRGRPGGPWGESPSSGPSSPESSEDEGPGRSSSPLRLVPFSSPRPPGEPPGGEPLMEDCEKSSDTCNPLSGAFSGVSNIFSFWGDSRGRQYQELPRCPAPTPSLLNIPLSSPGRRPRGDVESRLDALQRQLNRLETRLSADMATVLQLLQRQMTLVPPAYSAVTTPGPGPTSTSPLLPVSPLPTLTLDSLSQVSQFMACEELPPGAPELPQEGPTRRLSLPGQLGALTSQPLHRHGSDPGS

[4] = biological target: T1, hERG potassium channels stably expressed in CHO-K1 cells; settings: for hERG inhibition (in words): group C drugs: at the highest concentration permitted by solubility
[5] = read-out: Human plasma Cmax; single 400 mg dose in humans; cited from earlier work
[6] = system: anaesthetized guinea-pigs; experiment: Heart rate and mean blood pressure recordings in anaesthetized guinea-pigs; assay type: in vivo, guinea-pig; settings: limited the maximum dose to 3 mg kg^−1

SMILES: CC1(C)S[C@@H]2[C@H](NC(=O)[C@H](N)c3ccc(O)cc3)C(=O)N2[C@H]1C(=O)O [Amoxicillin]
Peak plasma level ([1]; 3 mg kg^−1 i.v. over 10 min): 4.8±0.5 (5) μm
Peak plasma level ([1]; 10 mg kg^−1 i.v. over 10 min): 14.6±1.4 (4) μm
Peak plasma level ([1]; 20 mg kg^−1 i.v. over 10 min): 30.3±2.5 (5) μm

SMILES: CC(C)NCC(O)COc1cccc2ccccc12 (stereo not shown) [Propranolol]
Protein binding (plasma proteins): 85%
Peak plasma level ([1]; 0.3 mg kg^−1 i.v. over 10 min): 0.50±0.03 (3) μm
Peak plasma level ([1]; 1 mg kg^−1 i.v. over 10 min): 1.84±0.41 (3) μm
Peak plasma level ([1]; 3 mg kg^−1 i.v. over 10 min): 4.65±0.40 (5) μm
QTc increase of 5% over vehicle (risk signal) [2]: did not reach the 5% increase of QTc

SMILES: CC(=O)Oc1ccccc1C(=O)O [Aspirin]
pIC50 [3]: < 1.00
Peak plasma level ([1]; 1 mg kg^−1 i.v. over 10 min): 31.1±2.3 (5) μm
Peak plasma level ([1]; 3 mg kg^−1 i.v. over 10 min): 74.6±2.1 (5) μm
Peak plasma level ([1]; 10 mg kg^−1 i.v. over 10 min): 468±78 (4) μm
hERG inhibition (in words) [4]: no hERG inhibition was observed
Free safety margin (hERG IC50/ free Cmax) ([4]; hERG IC50 divided by human free plasma Cmax): >4512
Free safety margin (hERG IC50/ free Cmax) ([4]; hERG IC50 divided by human free plasma Cmax, listed as aspirin): above 300
QTc increase of 5% over vehicle (risk signal) [2]: did not reach the 5% increase of QTc

SMILES: COc1ccc(CCN(C)CCCC(C#N)(c2ccc(OC)c(OC)c2)C(C)C)cc1OC (stereo not shown) [Verapamil]
QTc increase of 5% over vehicle (risk signal) [2]: did not reach the 5% increase of QTc

SMILES: COc1c(N2C[C@@H]3CCCN[C@@H]3C2)c(F)cc2c(=O)c(C(=O)O)cn(C3CC3)c12 [Moxifloxacin]
Peak plasma level ([1]; 1 mg kg^−1 i.v. over 10 min): 2.08±0.28 (4) μm
Peak plasma level ([1]; 5 mg kg^−1 i.v. over 10 min): 30.6±7.2 (4) μm
Peak plasma level ([1]; 10 mg kg^−1 i.v. over 10 min): 80.5±4.0 (5) μm
increase (change) of baseline-corrected QTc over vehicle [2]: 16.8%
mean baseline-corrected QTc [2]: 18.3%
effect on QT/QTc interval in the guinea-pig model (in words) [2]: dose-dependent QTc prolongation
Cmax [5]: ~7 µM

SMILES: CC(C)NCC(O)c1ccc(NS(C)(=O)=O)cc1 (racemic) [D,L-Sotalol]
Peak plasma level ([1]; 1 mg kg^−1 i.v. over 10 min): 18.2±1.5 (5) μm
Peak plasma level ([1]; 3 mg kg^−1 i.v. over 10 min): 41.3±4.8 (4) μm
Peak plasma level ([1]; 10 mg kg^−1 i.v. over 10 min): 145.9±16.6 (5) μm

SMILES: CC(C)(C)c1ccc(C(O)CCCN2CCC(C(O)(c3ccccc3)c3ccccc3)CC2)cc1 (stereo not shown) [Terfenadine]
haemodynamic effects (in words) [6]: marked bradycardia and resultant hypotension

SMILES: O=C(CCCN1CCC(O)(c2ccc(Cl)cc2)CC1)c1ccc(F)cc1 [Haloperidol]
Protein binding (plasma proteins): 90%
Free safety margin (hERG IC50/ free Cmax) ([4]; human, pH 7.4): 1.4
Total safety margin (hERG IC50/ total Cmax) ([4]; human, pH 7.4): 0.1

SMILES: C[C@H](CS)C(=O)N1CCC[C@H]1C(=O)O [Captopril]
Peak plasma level ([1]; 3 mg kg^−1 i.v. over 10 min): 57.8±1.6 (2) μm
Peak plasma level ([1]; 10 mg kg^−1 i.v. over 10 min): 142±15 (2) μm
Peak plasma level ([1]; 30 mg kg^−1 i.v. over 10 min): 313±112 (2) μm
hERG inhibition (in words) [4]: no hERG inhibition was observed
increase (change) of baseline-corrected QTc over vehicle [2]: −7.3%
mean baseline-corrected QTc [2]: −6.0%
effect on QT/QTc interval in the guinea-pig model (in words) [2]: QTc actually dropped below vehicle
QTc increase of 5% over vehicle (risk signal) [2]: did not reach the 5% increase of QTc

Now from value to compound, other results behind:

Peak plasma level ([1]; 0.03 mg kg^−1 i.v. over 10 min): 0.55±0.07 (3) μm
Peak plasma level ([1]; 0.1 mg kg^−1 i.v. over 10 min): 0.62±0.05 (5) μm
Peak plasma level ([1]; 0.3 mg kg^−1 i.v. over 10 min): 1.21±0.34 (5) μm
SMILES: O=C(CCCN1CC=C(n2c(=O)[nH]c3ccccc32)CC1)c1ccc(F)cc1 [Droperidol]

Peak plasma level ([1]; 3 mg kg^−1 i.v. over 10 min): 23.5±4.2 (3) μm
Peak plasma level ([1]; 10 mg kg^−1 i.v. over 10 min): 80.4±9.1 (5) μm
Peak plasma level ([1]; 30 mg kg^−1 i.v. over 10 min): 159.4±22.4 (4) μm
SMILES: C[C@@H]1CN(c2c(F)c(N)c3c(=O)c(C(=O)O)cn(C4CC4)c3c2F)C[C@H](C)N1 [Sparfloxacin]
pIC50 [3]: 4.62
Free safety margin (hERG IC50/ free Cmax) ([4]; human, pH 7.4): 3.757
Total safety margin (hERG IC50/ total Cmax) ([4]; human, pH 7.4): 2.477
increase (change) of baseline-corrected QTc over vehicle [2]: 19.6%
mean baseline-corrected QTc [2]: 20.0%

Peak plasma level ([1]; 3 mg kg^−1 i.v. over 10 min): 6.2±0.08 (3) μm
Peak plasma level ([1]; 10 mg kg^−1 i.v. over 10 min): 27.8±8.0 (5) μm
SMILES: C=C[C@H]1C[N@@]2CC[C@H]1C[C@@H]2[C@@H](O)c1ccnc2ccc(OC)cc12 [Quinidine]

Peak plasma level ([1]; 0.1 mg kg^−1 i.v. over 10 min): 0.037±0.023 (4) μm
Peak plasma level ([1]; 0.3 mg kg^−1 i.v. over 10 min): 0.129±0.032 (4) μm
Peak plasma level ([1]; 1 mg kg^−1 i.v. over 10 min): 0.496±0.085 (5) μm
SMILES: COc1cc(N)c(Cl)cc1C(=O)NC1CCN(CCCOc2ccc(F)cc2)CC1OC (stereo not shown) [Cisapride]

Peak plasma level ([1]; 0.1 mg kg^−1 i.v. over 10 min): 1.1±0.2 (4) μm
Peak plasma level ([1]; 0.3 mg kg^−1 i.v. over 10 min): 1.2±0.1 (2) μm
Peak plasma level ([1]; 1 mg kg^−1 i.v. over 10 min): 4.0±2.2 (2) μm
SMILES: O=C1Cc2cc(CCN3CCN(c4nsc5ccccc45)CC3)c(Cl)cc2N1 [Ziprasidone]
Free safety margin (hERG IC50/ free Cmax) ([4]; human, pH 7.4): 286.45
Total safety margin (hERG IC50/ total Cmax) ([4]; human, pH 7.4): 0.573

Peak plasma level ([1]; 3 mg kg^−1 i.v. over 10 min): 3.8±0.8 (4) μm
Peak plasma level ([1]; 10 mg kg^−1 i.v. over 10 min): 10.5±2.1 (5) μm
Peak plasma level ([1]; 30 mg kg^−1 i.v. over 10 min): 60.0±20.0 (5) μm
SMILES: CC/C(=C(\c1ccccc1)c1ccc(OCCN(C)C)cc1)c1ccccc1 [Tamoxifen]
mean baseline-corrected QTc [2]: 8.4%
